These results are taken from publication PMC5101293, “Acyclic nucleoside phosphonates containing the amide bond” (Monatshefte Fur Chemie, 2016).

The first data set deals with L1210 cells.
Experiment: not given
Set-up: method as in doi:10.1135/cccc19822806. Conditions: cited from earlier work.
Consider `O=C(Cn1cc(F)c(=O)[nH]c1=O)NC(CO)(CO)CO` [18e], for which the “concentration at which found active in vitro against L1210 cells” value was 15 µM.

Another data set has as its system human cervix carcinoma HeLa. The data set is described as follows: Cytostatic activity assay, HeLa. The following applies: HeLa cells, 72 h, read-out: IC50 (50% cytostatic inhibitory concentration, cell proliferation). It counts as cell-based. As for the experimental part: (§1) The 50% cytostatic inhibitory concentration (IC50) causing a 50% decrease in cell proliferation was determined against murine leukemia L1210, human lymphocyte CEM, human cervix carcinoma HeLa, and human dermal microvascular endothelial cells (HMEC-1).
(§2) All assays were performed in 96-well microtiter plates. To each well were added (5–7.5) × 10^4 tumor cells and a given amount of the test compound. The cells were allowed to proliferate for 48 h (murine leukemia L1210 cells) or 72 h (human lymphocytic CEM and human cervix carcinoma HeLa cells) at 37 °C in a humidified CO2-controlled atmosphere. At the end of the incubation period, the cells were counted in a Coulter counter. The IC50 (50% inhibitory concentration) was defined as the concentration of the compound that inhibited cell proliferation by 50%.
Regarding `CCOP(=O)(COCCNC(=O)Cn1cc(F)c(=O)[nH]c1=O)OCC` [18d], the IC50 amounted to 194 ± 19 µM.

The test system of another data set is murine leukemia L1210. The data set is described as follows: Cytostatic activity assay, L1210. It counts as cell-based. Conditions: Mus musculus; L1210 cells, 48 h; read-out: IC50 (50% cytostatic inhibitory concentration, cell proliferation). How it is done: as §1, §2
As to `CCOP(=O)(COCCNC(=O)Cn1cc(F)c(=O)[nH]c1=O)OCC` [18d], the IC50 came to 89 ± 16 µM.

System in the next data set: not given
Experiment: not given
Settings: not given
Regarding `CCOP(=O)(CNC(=O)Cn1c(=O)[nH]c(=O)c2ccccc21)OCC` (hydrate or solvate), the melting point lay within 203 to 205 °C.

The compound `CCOP(=O)(CNC(=O)Cn1cc(F)c(=O)[nH]c1=O)OCC` (hydrate or solvate) gave a melting point of 205 to 208 °C.

`CCOP(=O)(CNC(=O)Cn1cc(Br)c(=O)[nH]c1=O)OCC` displayed a melting point of 211 to 213 °C.

`CCOP(=O)(CCNC(=O)Cn1cc(Br)c(=O)[nH]c1=O)OCC` came in with a melting point of 211 to 213 °C.

In the case of `CCOP(=O)(CCNC(=O)Cn1c(=O)[nH]c(=O)c2ccccc21)OCC`, the melting point lay within 180 to 182 °C.

Regarding `CCOP(=O)(CNC(=O)Cn1ccc(NC(=O)OCc2ccccc2)nc1=O)OCC` (hydrate or solvate), the melting point was 180 to 182 °C.

As for `CCOP(=O)(CCNC(=O)Cn1cc(C)c(=O)[nH]c1=O)OCC`, the melting point was 196 to 197 °C.

The compound `CCOP(=O)(CCNC(=O)Cn1cnc2c(Cl)nc(N)nc21)OCC` came in with a melting point of 158 to 160 °C.

`CCOP(=O)(CCNC(=O)Cn1ccc(=O)[nH]c1=O)OCC` came in with a melting point of 138 to 140 °C.

The compound `CCOP(=O)(CNC(=O)Cn1cnc2c(N(C(=O)OC(C)(C)C)C(=O)OC(C)(C)C)ncnc21)OCC` returned a melting point of 128 to 130 °C.

In the case of `CCOP(=O)(CCNC(=O)Cn1cc(F)c(=O)[nH]c1=O)OCC`, the melting point lay within 185 to 186 °C.

Compound `CCOP(=O)(CNC(=O)Cn1cnc2c(Cl)nc(N)nc21)OCC` (hydrate or solvate) yielded a melting point of 130 to 132 °C.

Compound `CCOP(=O)(CNC(=O)Cn1cc(C)c(=O)[nH]c1=O)OCC` gave a melting point of 211.5 to 212.5 °C.

The compound `CCOP(=O)(CCNC(=O)Cn1ccc(NC(=O)OCc2ccccc2)nc1=O)OCC` displayed a melting point of 127 to 128 °C.

With `CCOP(=O)(CCCNC(=O)Cn1cc(C)c(=O)[nH]c1=O)OCC` (hydrate or solvate), the melting point was in the range of 183 to 184 °C.

In the case of `CCOP(=O)(CNC(=O)Cn1cnc2c(=O)[nH]c(N)nc21)OCC` (hydrate or solvate), the melting point was 165 °C (dec.).

In the case of `CCOP(=O)(CNC(=O)Cn1ccc(=O)[nH]c1=O)OCC`, the melting point lay within 215 to 217 °C.

Take `CCOP(=O)(CCCNC(=O)Cn1cnc2c(Cl)nc(N)nc21)OCC`: the melting point lay within 180 to 181 °C.

`CCOP(=O)(CCCNC(=O)Cn1cc(Br)c(=O)[nH]c1=O)OCC` had a melting point of 164 to 166 °C.

With `CCOP(=O)(CCCNC(=O)Cn1cnc2c(=O)[nH]c(N)nc21)OCC` (hydrate or solvate), the melting point was 155 °C (dec.).

Regarding `CCOP(=O)(CCNC(=O)Cn1cnc2c(=O)[nH]c(N)nc21)OCC` (hydrate or solvate), the melting point is 175 °C (dec.).

On to `CCOP(=O)(CCCNC(=O)Cn1ccc(=O)[nH]c1=O)OCC` (hydrate or solvate), for which the melting point is 120 to 122 °C.

In turn, `CCOP(=O)(COCCNC(=O)Cn1cc(F)c(=O)[nH]c1=O)OCC` [18d] came in with a melting point of 69 to 70 °C.

`CCOP(=O)(CCCNC(=O)Cn1cc(F)c(=O)[nH]c1=O)OCC` (hydrate or solvate) gave a melting point of 143 to 144 °C.

`CCOP(=O)(CCCNC(=O)Cn1c(=O)[nH]c(=O)c2ccccc21)OCC` displayed a melting point of 168 to 169 °C.

In turn, `CCOP(=O)(CCCNC(=O)Cn1ccc(NC(=O)OCc2ccccc2)nc1=O)OCC` returned a melting point of 150 to 151 °C.
